This note sets out measurements from ChEMBL document CHEMBL1201862, “PubChem BioAssay data set” (2004).

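Interpolation was linear, between the two tested concentrations surrounding the appropriate level; five concentrations were tested over 48 hours in 96-well plates. The concentration for 50% growth inhibition is given as GI50.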 Calls of active or inactive are those of the source. Cut-off read from the data, not from the text of the source: active = GI50 up to about 1.1 µM and inactive = higher. Non-standard residues stand in square brackets, D forms with d. Square brackets hold non-standard residues; d marks the D form. Residues, ends and D or L forms follow the SMILES beside them. Peptide text beside a SMILES is read from it. * marks the point of attachment. ξ: configuration not given here. *: point of attachment. ξF = NC(Cc1ccccc1)C(=O)O; Ac5c = NC1(C(=O)O)CCCC1; Cbz = O=C(OCc1ccccc1)*; Boc = CC(C)(C)OC(=O)*; Aib = CC(C)(N)C(=O)O; tBu = CC(C)(C)* Bounds are passed on as bounds.

What all share (experiment): growth of human tumour cells (NCI), 48 h
The test system of experiment [1] is A498.
Experiment [2] concerns CAKI-1.
In experiment [3] the test system is COLO 205.
Experiment [4] relates to HCT-116.
In experiment [5] the test system is HCT-15.
The test system of experiment [6] is HOP-62.
Experiment [7] concerns HOP-92.
Experiment [8] deals with IGROV-1.
The subject of experiment [9] is M14.
For experiment [10], the system named is MCF7.
Experiment [11] deals with MDA-MB-231.
The test system of experiment [12] is NCI-H522.
The test system of experiment [13] is OVCAR-4.
The test system of experiment [14] is OVCAR-8.
Experiment [15] deals with SF-268.
Experiment [16] concerns SK-MEL-5.
The subject of experiment [17] is UACC-257.
In experiment [18] the test system is RPMI-8226.
The test system of experiment [19] is SR.

For `CN(C)CCCn1c(Cc2ccccc2)nc2cc(C(F)(F)F)ccc21`, the GI50 is 15 µM (inactive) in experiment [1]; 17.7 µM (inactive) in [2]; 16.1 µM (inactive) in experiment [3]; 18 µM (inactive) in [4]; 24.8 µM in experiment [5]; 26.4 µM (inactive) in experiment [6]. Also, the GI50 in experiment [7] was 20 µM (inactive); in experiment [8], 30.2 µM (inactive); in experiment [9], 15.5 µM (inactive); in [10], 20.5 µM (inactive); in experiment [11], 22.4 µM (inactive); in experiment [12], 24.4 µM (inactive). Further, the GI50 in experiment [13] is 18.6 µM (inactive); in [14], 39.7 µM (inactive); in experiment [15] it was 53.8 µM (inactive); in experiment [16], 17.3 µM (inactive); in [17], 18.1 µM (inactive).
In the case of `Cc1cccc2c1CC(Cc1ccccc1C(=O)O)C2=O` (configuration not stated), the GI50 was > 100 µM (inactive) in experiment [2]; > 100 µM (inactive) in experiment [3]; > 100 µM (inactive) in experiment [4]; > 100 µM in experiment [5]; > 100 µM (inactive) in experiment [6]; > 100 µM (inactive) in experiment [7]. For the same compound, the GI50 in experiment [8], in [9], in experiment [10], in experiment [11], in experiment [12] and in experiment [13] was > 100 µM (inactive) in each case. For the same compound, the GI50 in experiment [14], in experiment [18], in [15], in [16], in experiment [19] and in experiment [17] was > 100 µM (inactive) in each case.
As for `OCCCSc1ccccc1SCCCO`, the GI50 was > 100 µM (inactive) in [3]; > 100 µM (inactive) in experiment [4]; > 100 µM in experiment [5]; > 100 µM (inactive) in [6]; < 0.01 µM (active) in experiment [7]; > 100 µM (inactive) in experiment [8]. The GI50 in experiment [9], in experiment [10], in experiment [11], in [12], in [13] and in experiment [14] was > 100 µM (inactive) throughout. Also, the GI50 in experiment [15], in [16], in experiment [19] and in experiment [17] was > 100 µM (inactive) in each case.
In the case of `COC(=O)CCc1ccc2c(c1)CCC2`, the GI50 in experiment [2] was > 100 µM (inactive); in experiment [3], > 100 µM (inactive); in experiment [4], > 100 µM (inactive); in experiment [5], > 100 µM; in experiment [6] it was > 100 µM (inactive); in [7] it was 15.1 µM (inactive). In addition, the GI50 in experiment [8], in [9], in experiment [10], in [11], in [12] and in experiment [13] was > 100 µM (inactive) in each case. For the same compound, the GI50 in experiment [14], in experiment [18], in experiment [15], in [16], in experiment [19] and in experiment [17] was > 100 µM (inactive) throughout.
For `CC(OC(C)(C)C)C(NC(=O)C(CCCCNC(=O)OC(C)(C)C)NC(=O)C(Cc1c[nH]c2ccccc12)NC(=O)C(N)Cc1ccccc1)C(=O)NC(Cc1ccccc1)C(=O)NC1(C(=O)O)CCCC1` (configuration not stated) (H-FWK(Boc)T(tBu)F[Ac5c]-OH; configuration not given here), the GI50 was > 100 µM (inactive) in experiment [1]; > 100 µM (inactive) in experiment [2]; > 100 µM (inactive) in experiment [3]; > 100 µM (inactive) in [4]; > 100 µM in experiment [5]; > 100 µM (inactive) in experiment [6]. For the same compound, the GI50 in experiment [7], in experiment [8], in [9], in experiment [10], in experiment [11] and in [12] was > 100 µM (inactive) each time. In addition, the GI50 in experiment [13], in experiment [14], in [18], in experiment [15], in [16] and in experiment [17] was > 100 µM (inactive) in each case.
Consider `Cn1c2ccccc2c(=NNc2ccc(C(=O)O)cc2)c2ccccc21`, for which the GI50 is 21.6 µM (inactive) in [2]; 15.3 µM (inactive) in experiment [3]; 7.5 µM (inactive) in experiment [4]; 18.8 µM in [5]; 18.8 µM (inactive) in experiment [6]; 20.5 µM (inactive) in [7]. In addition, the GI50 in [8] was 20.1 µM (inactive); in experiment [9], 16.9 µM (inactive); in experiment [10], 10.4 µM (inactive); in experiment [11], 19.8 µM (inactive); in experiment [12], 10.7 µM (inactive); in experiment [13], 12.9 µM (inactive). Further, the GI50 in experiment [14] is 14.8 µM (inactive); in experiment [18] it was 12.9 µM (inactive); in experiment [15], 15.8 µM (inactive); in experiment [16] it was 17.6 µM (inactive); in experiment [19], 13.8 µM (inactive); in [17], 30.1 µM (inactive).
For the compound `O=C(CCCN1CCC(Nc2ccccc2)(c2nnnn2C2CCCCC2)CC1)c1ccc(F)cc1`, the GI50 was > 10 µM (inactive) in experiment [1]; 2.24 µM (inactive) in [3]; 4.48 µM (inactive) in experiment [4]; 8.28 µM in experiment [5]; 6.17 µM (inactive) in experiment [6]; 11.1 µM (inactive) in experiment [8]. The GI50 in experiment [9] was 1.99 µM (inactive); in [10], 2.28 µM (inactive); in [11] it was 8.65 µM (inactive); in experiment [12], 6.55 µM (inactive); in experiment [13], 6.34 µM (inactive); in experiment [14], 13.1 µM (inactive). In addition, the GI50 in [18] is 3.48 µM (inactive); in experiment [15], 2.4 µM (inactive); in experiment [16], 1.64 µM (inactive); in [19], 6.67 µM (inactive); in experiment [17], 2.52 µM (inactive).
Take `C=CCN(c1cc(OC)c2[nH]c(C(=O)OCC)c(C)c2c1[N+](=O)[O-])S(C)(=O)=O`: the GI50 in experiment [1] is 25.8 µM (inactive); in experiment [2], 34 µM (inactive); in experiment [3], 15.5 µM (inactive); in experiment [4], 18.2 µM (inactive); in experiment [5], 25.6 µM; in experiment [6] it was 35.6 µM (inactive). Moreover, the GI50 is 18.6 µM (inactive) in [7]; 33.7 µM (inactive) in experiment [8]; 30.8 µM (inactive) in [9]; 22.4 µM (inactive) in experiment [10]; 11 µM (inactive) in experiment [11]; 17.7 µM (inactive) in experiment [12]. Also, the GI50 in experiment [13] is 32.4 µM (inactive); in experiment [14] it was 28.6 µM (inactive); in experiment [18], 14.6 µM (inactive); in experiment [15], 26.4 µM (inactive); in [16] it was 16.1 µM (inactive); in experiment [17], 39.9 µM (inactive).
Regarding `CC(C)(NC(=O)OCc1ccccc1)C(=O)NC(Cc1ccccc1)C(=O)O` (configuration not stated) (Cbz-[Aib]-[ξF]-OH), the GI50 was > 100 µM (inactive) in experiment [1]; > 100 µM (inactive) in experiment [2]; > 100 µM (inactive) in experiment [3]; > 100 µM (inactive) in experiment [4]; > 100 µM in experiment [5]; > 100 µM (inactive) in [6]. Also, the GI50 in experiment [7], in experiment [8], in experiment [9], in experiment [10], in experiment [11] and in experiment [12] was > 100 µM (inactive) in each case. In addition, the GI50 in [13], in experiment [14], in [18], in [16] and in experiment [17] was > 100 µM (inactive) in each case.
Regarding `O=c1cc(-c2ccccc2)[nH]c2ccc(S)cc12`, the GI50 in [3] was 38.3 µM (inactive); in experiment [4], 24.4 µM (inactive); in experiment [5], 16.8 µM; in experiment [6], 70.3 µM (inactive); in [7], 35.8 µM (inactive); in experiment [8], 29.8 µM (inactive). The GI50 in experiment [9] was 25.9 µM (inactive); in [10], 24.2 µM (inactive); in experiment [11] it was 65.2 µM (inactive); in [12], 21.7 µM (inactive); in experiment [13] it was 57.1 µM (inactive); in experiment [14], 31.7 µM (inactive). Besides, the GI50 in [18] is 44.2 µM (inactive); in experiment [15], 41.9 µM (inactive); in experiment [16] it was 15.5 µM (inactive); in experiment [19], 30.8 µM (inactive); in [17], 42.5 µM (inactive).
For the compound `c1ccc(CSSSCc2ccccc2)cc1` [DIBENZYL TRISULFIDE], the GI50 in [1] is 18.6 µM (inactive); in experiment [2], 1.41 µM (inactive); in [3], 1.87 µM (inactive); in experiment [4], 0.272 µM (active); in [5], 0.581 µM; in [6], 0.964 µM (active). For the same compound, the GI50 in experiment [8] was 2.8 µM (inactive); in [9], 2.27 µM (inactive); in experiment [10] it was 0.385 µM (active); in experiment [11], 2.48 µM (inactive); in [12] it was 0.363 µM (active); in experiment [13], 2.3 µM (inactive). Moreover, the GI50 was 1.15 µM (inactive) in experiment [14]; 0.313 µM (active) in experiment [18]; 3.57 µM (inactive) in experiment [15]; 1.88 µM (inactive) in experiment [16]; 4.06 µM (inactive) in experiment [19]; 5.57 µM (inactive) in experiment [17].
